This is an account of results in patent US10722501B2 (BAYER AKTIENGESELLSCHAFT, priority 2016, dated 2020).

As usually defined, the IC50 is the point on the concentration scale where inhibition reaches its midpoint.

In this assay the target is T1, recombinant full-length human prolyl endopeptidase (PREP) (Homo sapiens, UniProt P48147).
T1 construct: To recombinant full-length human prolyl endopeptidase (PREP, R&D-Systems, 4308-SE); purchased R&D-Systems 4308-SE
T1 sequence (P48147 1-710): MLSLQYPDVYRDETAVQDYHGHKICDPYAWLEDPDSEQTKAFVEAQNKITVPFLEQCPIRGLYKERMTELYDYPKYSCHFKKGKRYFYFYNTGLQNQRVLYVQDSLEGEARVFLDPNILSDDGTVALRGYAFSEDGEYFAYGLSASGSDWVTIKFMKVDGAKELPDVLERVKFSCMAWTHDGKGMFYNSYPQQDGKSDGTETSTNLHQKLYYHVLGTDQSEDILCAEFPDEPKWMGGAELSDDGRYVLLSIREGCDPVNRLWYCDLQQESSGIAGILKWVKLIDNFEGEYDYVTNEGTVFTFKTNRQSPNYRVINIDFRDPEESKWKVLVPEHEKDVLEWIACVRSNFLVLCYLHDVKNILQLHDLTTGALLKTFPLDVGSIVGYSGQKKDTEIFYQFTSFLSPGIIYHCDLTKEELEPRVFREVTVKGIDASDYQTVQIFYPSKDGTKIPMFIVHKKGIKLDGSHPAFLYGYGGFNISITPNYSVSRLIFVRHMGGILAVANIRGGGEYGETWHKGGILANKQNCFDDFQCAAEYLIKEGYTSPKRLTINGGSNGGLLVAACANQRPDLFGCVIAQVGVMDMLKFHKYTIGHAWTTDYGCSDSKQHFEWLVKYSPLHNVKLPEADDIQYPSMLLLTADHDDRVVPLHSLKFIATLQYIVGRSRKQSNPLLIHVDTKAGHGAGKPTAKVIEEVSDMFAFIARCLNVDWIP
Kind of assay: Biochemical human prolyl endopeptidase (PREP) assay with fluorescently labelled substrate. The note with it: substrate Z-Gly-Pro-AMC 50 μM, 32° C., 60 min; some as mean values from multiple independent determinations. An outline of the steps: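 0.4 nM (final, example) recombinant PREP in pH 7.5 Tris buffer with EDTA, GSH, BSA and Brij-35; compounds at 1 nM to 30 μM. Reaction started with 50 μM Z-Gly-Pro-AMC and followed by fluorescence (ex 360/em 465 nm) at 32° C for 60 min. IC50 interpolated from percent activity based on initial slopes.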
With `O=C([C@@H]1CCCc2nn(Cc3cncc(Cl)c3)c(=O)n21)N1CC[C@H](F)C1` [Example 438, (5S)-2-[(5-Chloropyridin-3-yl)methyl]-5-{[(3S)-3-fluoropyrrolidin-1-yl]carbonyl}-5,6,7,8-tetrahydro[1,2,4]triazolo[4,3-a]pyridin-3(2H)-one], the IC50 came out at 1.68 nM.
On to `O=C([C@@H]1CCCc2nn(Cc3cncc(Cl)c3)c(=O)n21)N1C[C@@H](F)[C@@H](F)C1` [Example 439, (5S)-2-[(5-Chloropyridin-3-yl)methyl]-5-{[(3R,4S)-3,4-difluoropyrrolidin-1-yl]carbonyl}-5,6,7,8-tetrahydro[1,2,4]triazolo[4,3-a]pyridin-3(2H)-one], for which the IC50 amounted to 2.2 nM.
With `O=C([C@@H]1CCCc2nn(Cc3cnc(C(F)(F)F)c(Cl)c3)c(=O)n21)N1C[C@@H](F)[C@@H](F)C1` [Example 440, (5S)-2-{[5-Chloro-6-(trifluoromethyl)pyridin-3-yl]methyl}-5-{[(3R,4S)-3,4-difluoropyrrolidin-1-yl]carbonyl}-5,6,7,8-tetrahydro[1,2,4]triazolo[4,3-a]pyridin-3(2H)-one], the IC50 turned out to be 0.715 nM.
As for `O=C([C@@H]1CCCc2nn(Cc3cnc(C(F)(F)F)c(Cl)c3)c(=O)n21)N1CCC(F)(F)C1` [Example 441, (5S)-2-{[5-Chloro-6-(trifluoromethyl)pyridin-3-yl]methyl}-5-[(3,3-difluoropyrrolidin-1-yl)carbonyl]-5,6,7,8-tetrahydro[1,2,4]triazolo[4,3-a]pyridin-3(2H)-one], the concentration for half-maximal inhibition (IC50) came out at 2 nM.
As to `COc1ncc(Cn2nc3n(c2=O)[C@H](C(=O)N2C[C@@H](F)[C@@H](F)C2)CCC3)cc1Cl` [Example 442, (5S)-2-[(5-Chloro-6-methoxypyridin-3-yl)methyl]-5-{[(3R,4S)-3,4-difluoropyrrolidin-1-yl]carbonyl}-5,6,7,8-tetrahydro[1,2,4]triazolo[4,3-a]pyridin-3(2H)-one], the IC50 amounted to 1 nM.
With `COc1ncc(Cn2nc3n(c2=O)[C@H](C(=O)N2CCC(F)(F)C2)CCC3)cc1Cl` [Example 443, (5S)-2-[(5-Chloro-6-methoxypyridin-3-yl)methyl]-5-[(3,3-difluoropyrrolidin-1-yl)carbonyl]-5,6,7,8-tetrahydro[1,2,4]triazolo[4,3-a]pyridin-3(2H)-one], the half-maximal inhibitory concentration (IC50) was 0.61 nM.
Under `O=C([C@@H]1CCCc2nn(Cc3cccc(C(F)(F)F)c3)c(=O)n21)N1CC[C@H](F)C1` [Example 444, (5S)-5-{[(3S)-3-Fluoropyrrolidin-1-yl]carbonyl}-2-[3-(trifluoromethyl)benzyl]-5,6,7,8-tetrahydro[1,2,4]triazolo[4,3-a]pyridin-3(2H)-one] stands 0.19 nM.
With `O=C([C@@H]1CCCc2nn(Cc3cccc(C(F)(F)F)c3)c(=O)n21)N1C[C@@H](F)[C@@H](F)C1` [Example 445, (5S)-5-{[(3R,4S)-3,4-Difluoropyrrolidin-1-yl]carbonyl}-2-[3-(trifluoromethyl)benzyl]-5,6,7,8-tetrahydro[1,2,4]triazolo[4,3-a]pyridin-3(2H)-one], the IC50 was 0.76 nM.
For `O=C([C@@H]1CCCc2nn(Cc3cccc(C(F)(F)F)c3)c(=O)n21)N1CCC(F)(F)C1` [Example 446, (5S)-5-[(3,3-Difluoropyrrolidin-1-yl)carbonyl]-2-[3-(trifluoromethyl)benzyl]-5,6,7,8-tetrahydro[1,2,4]triazolo[4,3-a]pyridin-3(2H)-one] the value was 0.73 nM; for `O=C([C@@H]1CCCc2nn(Cc3cccc(C(F)(F)F)c3)c(=O)n21)N1CC(F)C1` [Example 447, (5S)-5-[(3-Fluoroazetidin-1-yl)carbonyl]-2-[3-(trifluoromethyl)benzyl]-5,6,7,8-tetrahydro[1,2,4]triazolo[4,3-a]pyridin-3(2H)-one], 1.4 nM.
Under `O=C([C@@H]1CCCc2nn(Cc3ccc(F)c(C(F)(F)F)c3)c(=O)n21)N1CC[C@H](F)C1` [Example 448, (5S)-5-{[(3S)-3-Fluoropyrrolidin-1-yl]carbonyl}-2-[4-fluoro-3-(trifluoromethyl)benzyl]-5,6,7,8-tetrahydro[1,2,4]triazolo[4,3-a]pyridin-3(2H)-one] stands 0.615 nM.
In the case of `O=C([C@@H]1CCCc2nn(Cc3ccc(F)c(C(F)(F)F)c3)c(=O)n21)N1CC(O)C1` [Example 449, (5S)-2-[4-Fluoro-3-(trifluoromethyl)benzyl]-5-[(3-hydroxyazetidin-1-yl)carbonyl]-5,6,7,8-tetrahydro[1,2,4]triazolo[4,3-a]pyridin-3(2H)-one], the half-inhibitory concentration (IC50) was 5.55 nM.
In the case of `O=C([C@@H]1CCCc2nn(Cc3ccnc(C(F)(F)F)c3)c(=O)n21)N1CC[C@H](F)C1` [Example 450, (5S)-5-{[(3S)-3-Fluoropyrrolidin-1-yl]carbonyl}-2-{[2-(trifluoromethyl)pyridin-4-yl]methyl}-5,6,7,8-tetrahydro[1,2,4]triazolo[4,3-a]pyridin-3(2H)-one], the concentration for half-maximal inhibition (IC50) was found to be 1.1 nM.
For `O=C([C@@H]1CCCc2nn(Cc3ccc(F)cc3)c(=O)n21)N1CCC(F)(F)C1` [Example 451, (5S)-5-[(3,3-Difluoropyrrolidin-1-yl)carbonyl]-2-(4-fluorobenzyl)-5,6,7,8-tetrahydro[1,2,4]triazolo[4,3-a]pyridin-3(2H)-one] the value was 1.1 nM; for `O=C([C@@H]1CCCc2nn(Cc3ccc(F)cc3)c(=O)n21)N1C[C@@H](F)[C@@H](F)C1` [Example 452, (5S)-5-{[(3R,4S)-3,4-Difluoropyrrolidin-1-yl]carbonyl}-2-(4-fluorobenzyl)-5,6,7,8-tetrahydro[1,2,4]triazolo[4,3-a]pyridin-3(2H)-one], 1.3 nM; for `COc1ccc(Cn2nc3n(c2=O)[C@H](C(=O)N2C[C@@H](F)[C@@H](F)C2)CCC3)cc1` [Example 453, (5S)-5-{[(3R,4S)-3,4-Difluoropyrrolidin-1-yl]carbonyl}-2-(4-methoxybenzyl)-5,6,7,8-tetrahydro[1,2,4]triazolo[4,3-a]pyridin-3(2H)-one], 0.375 nM.
For the compound `O=C([C@@H]1CCCc2nn(Cc3ccc(F)c(Cl)c3)c(=O)n21)N1CC[C@H](F)C1` [Example 454, (5S)-2-(3-Chloro-4-fluorobenzyl)-5-{[(3S)-3-fluoropyrrolidin-1-yl]carbonyl}-5,6,7,8-tetrahydro[1,2,4]triazolo[4,3-a]pyridin-3(2H)-one], the IC50 is 0.063 nM.
For `O=C([C@@H]1CCCc2nn(Cc3ccc(F)c(Cl)c3)c(=O)n21)N1CCC(F)(F)C1` [Example 455, (5S)-2-(3-Chloro-4-fluorobenzyl)-5-[(3,3-difluoropyrrolidin-1-yl)carbonyl]-5,6,7,8-tetrahydro[1,2,4]triazolo[4,3-a]pyridin-3(2H)-one] the value was 0.77 nM; for `O=C([C@@H]1CCCc2nn(Cc3ccc(F)c(Cl)c3)c(=O)n21)N1C[C@@H](F)[C@@H](F)C1` [Example 456, (5S)-2-(3-Chloro-4-fluorobenzyl)-5-{[(3R,4S)-3,4-difluoropyrrolidin-1-yl]carbonyl}-5,6,7,8-tetrahydro[1,2,4]triazolo[4,3-a]pyridin-3(2H)-one], 0.27 nM; for `O=C([C@@H]1CCCc2nn(Cc3ccc(F)c(Cl)c3)c(=O)n21)N1CC(F)C1` [Example 457, (5S)-2-(3-Chloro-4-fluorobenzyl)-5-[(3-fluoroazetidin-1-yl)carbonyl]-5,6,7,8-tetrahydro[1,2,4]triazolo[4,3-a]pyridin-3(2H)-one], 1.32 nM.
